Article PMC4919791, “Effect of curcumin analogs onα-synuclein aggregation and cytotoxicity” (Scientific Reports, 2016)

Legend:
[1] = target: T1, preformed α-Syn fibrils (Homo sapiens, UniProt P37840); assay: LDH cytotoxicity assay of preformed α-Syn fibrils incubated with curcumin analogs; format: cell-based; conditions: fibrils incubated with analog 48 h; SH-SY5Y cells
T1 construct: made in house; host or cells: Escherichia coli BL21
Experimental: The concentration of the fibrils was determined by subtraction of supernatant concentration from the original concentration of α-Syn kept for fibrillation.
(§1) The percent LDH release was plotted as difference in the absorbance value of 490 nm and 690 nm, considering 100% release for the TritonX-100 treated cells.

[2] = target: T1, preformed α-Syn fibrils; assay: Nile red binding assay on preformed α-Syn fibrils; format: biochemical; conditions: fibrils incubated with analog 48 h
Experimental: Stock solution of NR was prepared in DMSO (1 mM). […] Similar experimental protocol was used for NR binding to oligomers. FluoroMax-4 spectrofluorometer (HORIBA JobinYvon) was used with excitation and emission slit widths of 5 nm. The maximum NR fluorescence obtained at ~630 nm was used for plotting bar diagrams.

[3] = target: T1, preformed α-Syn fibrils; assay: CD spectroscopy of preformed α-Syn fibrils with analogs; format: biochemical; conditions: 0 h and 48 h of incubation
Experimental: Further, the effect of curcumin analogs on the secondary structure of protein in preformed amyloid fibrils was studied by circular dichroism (CD) spectroscopy at 0 h and after 48 h of incubation. […] To further validate this, Fourier transform infrared spectroscopy (FTIR) was also performed with these samples, where spectra were recorded from 1500 to 1800 cm^−1.The region characteristic of protein secondary structures (1600–1700 cm^−1) was deconvoluted and the peaks were assigned according to published reports. FTIR spectra in the 1600–1700 cm^−1 region of preformed α-Syn fibrils in absence and presence of curcumin and its analogs are presented in Figs 4B and S4 and their percentage of secondary structures are shown in Table-S1.
20 μl of protein solution from 80 μM stock was diluted to 200 μl in 20 mM MES buffer, pH 6.0 with 0.01% NaN3 such that final protein concentration becomes 8 μM. The protein solution was then placed into a quartz cell (Hellma, Forest Hills, NY) of 0.1 cm path-length. Spectra were recorded using JASCO-810 instrument at 25 °C. Spectra acquisition was over the wavelength range of 198–260 nm with the scan speed of 100 nm/min, bandwidth 1 nm, data pitch 1 nm and response time of 1 sec. Processing of raw data was done by subtraction of buffer spectra and subsequently smoothing according to the manufacturer’s instructions.

[4] = target: T2, α-Syn fibrils (Homo sapiens, UniProt P37840); assay: Binding affinity to α-Syn fibrils by curcumin analog fluorescence
T2 construct: made in house; host or cells: Escherichia coli BL21
Experimental: To estimate the comparative binding affinity of curcumin analogs to the α-Syn fibrils and oligomers, curcumin fluorescence assay was performed for each analog. For binding study with fibrils, 10 μM of α-Syn fibrils were incubated in presence of varying concentration of curcumin and its analogs (0.25 μM to 30 μM) for 30 min at RT in dark and then fluorescence spectra were recorded. The normalized fluorescence intensity of different concentrations of curcumin/analogs at their corresponding λmax was plotted to obtain their respective saturation plots (Figs 6A and S7). From the saturation plot, dissociation constant (Kd) was calculated (see method section).
The binding of curcumin/analogs to α-Syn fibrils were determined based on change in fluorescence intensity. For this study, 10 μM α-Syn fibrils were incubated in presence and absence of varying concentration of curcumin/analogs (0.25 μM to 30 μM) for 30 min at RT in dark. Immediately after incubation, fluorescence study was performed (for the excitation and emission ranges for each compounds, see Fig. S1). Experiments were performed using FluoroMax-4 spectrofluorometer (HORIBA JobinYvon) with excitation and emission slit widths of 5 nm. The maximum fluorescence intensity for curcumin/analogs was normalized with respect to that of the lowest concentration of each analog. The normalized fluorescence intensity was plotted against increasing concentration of curcumin/analogs and the dissociation constant was determined using the equation
where, “ΔF” is the change in the fluorescence intensity of curcumin/analogs, “ΔFmax” is the change in the fluorescence intensity at saturation point and “L”is the concentration of curcumin/analogs. The data were analyzed in Graphpad Prism software according to established method as used previously. Similarly, the dissociation constant of curcumin and its analogs with preformed α-Syn oligomers and monomers (obtained from SEC) were also determined.

[5] = Stability of curcumin analogs by time-dependent intrinsic fluorescence; format: physicochemical; conditions: 20 mM MES buffer pH 6.0, 0.01% NaN3, 37 °C
Experimental: 1μl of this DMSO-stock solution was transferred to 2 ml microfuge tube and 1 ml of 20 mM MES buffer (pH 6.0, 0.01% NaN3) was added to it and mixed immediately by vortexing. These solutions were incubated at 37 °C and their respective fluorescence was taken at certain time intervals. The fluorescence was monitored by placing the 200 μl of the incubated solution in 0.1 cm path-length quartz cuvette (Hellma, Forest Hills, NY) and the spectra were acquired by using FluoroMax-4 spectrofluorometer (HORIBA JobinYvon) instrument with excitation and emission slit widths of 5 nm and 10 nm respectively. The fluorescence intensity maxima for each sample were plotted against time of incubation and fitted in exponential decay 1 in the Origin 8.0 software according to manufacture’s protocol (Fig. 2A).

[6] = target: T2, α-Syn fibrils; assay: LDH cytotoxicity assay of α-Syn fibrils formed in presence of curcumin analogs; format: cell-based; conditions: SH-SY5Y cells
Excerpt: as §1

[7] = target: T3, α-Syn (Homo sapiens, UniProt P37840); assay: TEM of α-Syn aggregates formed in presence of analogs; format: biochemical
T3 construct: made in house; host or cells: Escherichia coli BL21
Experimental: Subsequently, we examined the effect of these analogs on α-Syn oligomerization by time dependent static light scattering experiment. […] After aggregation, TEM study was done to determine the effects of these analogs on the morphology of the resultant aggregates.
The samples were then washed thrice with autoclaved MQ. The samples were then stained with 10 μl of uranyl formate 1% (w/v) and incubated in dark for 10 min. The EM image of each sample was acquired at 120 kV with magnifications in the range of 26,000X and 43,000X using a transmission electron microscope (TECNAI12 D312 FEI, Netherlands).

## COc1cc(/C=C/C(=O)CC(=O)/C=C/c2ccc(OCc3ccccc3)c(OC)c2)ccc1OCc1ccccc1 [C6]
[1]
  effect on cell death by preformed α-Syn fibrils, LDH: decrease in cell death
[2]
  Nile red fluorescence of preformed α-Syn fibrils (exposed hydrophobic surface): less NR fluorescence for fibrils as compared to curcumin
[3]
  secondary structure of preformed α-Syn fibrils by CD: remains unaltered
[4]; 10 μM fibrils, 0.25–30 μM analog, 30 min RT, read-out: dissociation constant (Kd) for α-Syn fibrils
  Kd: 482 ± 70 nM
[4]; compound fluorescence
  binding with preformed α-Syn fibrils: highest binding
[5]
  relative stability compared with curcumin (slope of normalized fluorescence versus time): relatively more stable than curcumin
[6]
  toxicity of α-Syn fibrils formed in presence of analog, LDH: less toxicity to cells
[7]
  average fibril thickness of fibrils formed in presence of analog: more in comparison to fibrils formed in presence of other analogs
